Twelve compounds from ChEMBL document CHEMBL1155771, “Emergence of KPC-2 and KPC-3 in carbapenem-resistant Klebsiella pneumoniae strains in an Israeli hospital” (2007) can be followed below.

Experiment [1] concerns Klebsiella pneumoniae. As to the kind of experiment: Antibacterial activity against carbapenem-resistant Klebsiella pneumoniae 490 isolate producing KPC3 and TEM1 carbapenemases. In kind it is functional.
The subject of experiment [2] is Klebsiella pneumoniae. Briefly: Antibacterial activity against carbapenem-resistant Klebsiella pneumoniae 469 isolate producing KPC2, OXA4 and CTX-M-10 carbapenemases. It counts as functional.
Experiment [3] has as its system Escherichia coli. As to the kind of experiment: Antibacterial activity against carbapenem-resistant blaKPC-encoding plasmid harboring Escherichia coli GeneHogs transformants of Klebsiella pneumoniae 469 producing KPC2, OXA4 and CTX-M-10 carbapenemases.
The test system of experiment [4] is Escherichia coli. Briefly: Antibacterial activity against carbapenem-resistant blaKPC-encoding plasmid harboring Escherichia coli GeneHogs transformant of Klebsiella pneumoniae 490 producing KPC3 and TEM1 carbapenemases.
For experiment [5], the system named is Escherichia coli. Briefly: Antibacterial activity against sEscherichia coli GeneHogs recipient strain without blaKPC-encoding plasmid.

≈ marks a conversion by molar mass, not a printed value.

As usually defined, the MIC is the least concentration at which growth counts as inhibited. Read a high MIC as weaker potency.

Take COLISTIN: the minimal inhibitory concentration (MIC) in experiment [1] and in experiment [2] was 0.25 µg/mL each time.
For the compound `CN(C)c1cc(NC(=O)CNC(C)(C)C)c(O)c2c1C[C@H]1C[C@H]3[C@H](N(C)C)C(O)=C(C(N)=O)C(=O)[C@@]3(O)C(O)=C1C2=O` [TIGECYCLINE], the minimum inhibitory concentration (MIC) in experiment [3] is 0.5 µg/mL (≈ 0.854 µM); in experiment [1], 2 µg/mL (≈ 3.41 µM); in experiment [2], 2 µg/mL (≈ 3.41 µM); in experiment [4] it was 0.5 µg/mL (≈ 0.854 µM); in experiment [5] it was 0.016 µg/mL (≈ 0.0273 µM).
`NCC[C@H](O)C(=O)N[C@@H]1C[C@H](N)[C@@H](O[C@H]2O[C@H](CN)[C@@H](O)[C@H](O)[C@H]2O)[C@H](O)[C@H]1O[C@H]1O[C@H](CO)[C@@H](O)[C@H](N)[C@H]1O` [AMIKACIN]: the minimal inhibitory concentration (MIC) in experiment [3] was 16 µg/mL (≈ 27.3 µM); in experiment [1], above 64 µg/mL; in experiment [2], 4 µg/mL (≈ 6.83 µM); in experiment [4], below 2 µg/mL; in experiment [5], below 2 µg/mL.
Take `CO/N=C(\C(=O)N[C@@H]1C(=O)N2C(C(=O)[O-])=C(C[N+]3(C)CCCC3)CS[C@H]12)c1csc(N)n1`: the MIC in experiment [1] was above 64 µg/mL; in experiment [2] it was above 64 µg/mL; in experiment [5] it was below 1 µg/mL.
In the case of `C[C@@H](O)[C@H]1C(=O)N2C(C(=O)O)=C(S[C@@H]3CN[C@H](C(=O)N(C)C)C3)[C@H](C)[C@H]12` [MEROPENEM], the MIC was 4 µg/mL (≈ 10.4 µM) in experiment [3]; 32 µg/mL (≈ 83.4 µM) in experiment [1]; 8 µg/mL (≈ 20.9 µM) in experiment [2]; 2 µg/mL (≈ 5.22 µM) in experiment [4]; below 0.25 µg/mL in experiment [5].
As to `C[C@@H](O)[C@H]1C(=O)N2C(C(=O)O)=C(SCCNC=N)C[C@H]12` [IMIPENEM ANHYDROUS], the MIC in experiment [3] was 4 µg/mL (≈ 13.4 µM); in experiment [1] it was 32 µg/mL (≈ 107 µM); in experiment [2], 16 µg/mL (≈ 53.4 µM); in experiment [4] it was 4 µg/mL (≈ 13.4 µM); in experiment [5], below 0.25 µg/mL.
As for `C[C@H]1[C@H](NC(=O)/C(=N\OC(C)(C)C(=O)O)c2csc(N)n2)C(=O)N1S(=O)(=O)O` [AZTREONAM], the MIC in experiment [3] is 32 µg/mL (≈ 73.5 µM); in experiment [5], below 1 µg/mL.
For `CC(C)(O/N=C(\C(=O)N[C@@H]1C(=O)N2C(C(=O)[O-])=C(C[n+]3ccccc3)CS[C@H]12)c1csc(N)n1)C(=O)O` [CEFTAZIDIME], the MIC is above 64 µg/mL in experiment [3]; above 64 µg/mL in experiment [1]; above 64 µg/mL in experiment [2]; 16 µg/mL (≈ 29.3 µM) in experiment [4]; below 1 µg/mL in experiment [5].
In the case of `CCN1CCN(C(=O)N[C@@H](C(=O)N[C@@H]2C(=O)N3[C@@H]2SC(C)(C)[C@@H]3C(=O)O)c2ccccc2)C(=O)C1=O` [PIPERACILLIN], the MIC in experiment [3] is above 128 µg/mL; in experiment [1], above 128 µg/mL; in experiment [2], above 128 µg/mL; in experiment [4] it was above 128 µg/mL; in experiment [5], below 4 µg/mL.
For the compound `CO/N=C(\C(=O)N[C@@H]1C(=O)N2C(C(=O)O)=C(CSc3nc(=O)c(O)nn3C)CS[C@H]12)c1csc(N)n1` [CEFTRIAXONE], the minimal inhibitory concentration (MIC) is above 64 µg/mL in experiment [3]; above 64 µg/mL in experiment [1]; above 64 µg/mL in experiment [2]; 8 µg/mL (≈ 14.4 µM) in experiment [4]; below 1 µg/mL in experiment [5].
Consider `C[C@@H](O)[C@H]1C(=O)N2C(C(=O)O)=C(S[C@@H]3CN[C@H](C(=O)Nc4cccc(C(=O)O)c4)C3)[C@H](C)[C@H]12`, for which the minimum inhibitory concentration (MIC) was 4 µg/mL (≈ 8.41 µM) in experiment [3]; 64 µg/mL (≈ 135 µM) in experiment [1]; 16 µg/mL (≈ 33.6 µM) in experiment [2]; 2 µg/mL (≈ 4.21 µM) in experiment [4]; below 0.25 µg/mL in experiment [5].
The compound `O=C(O)c1cn(C2CC2)c2cc(N3CCNCC3)c(F)cc2c1=O` [CIPROFLOXACIN] returned an MIC in experiment [5] below 0.25 µg/mL.
